Measurements from patent US11945813B2, “5-substituted 4-amino-1H-benzo[c][1,2,6]thiadiazine 2,2-dioxides and formulations and uses thereof” (Firmenich Incorporated, priority 2018, dated 2024).

Target: T1, T1R2/T1R3 taste receptor (Homo sapiens, UniProt Q8TE23)
T1 sequence (Q8TE23 20-839): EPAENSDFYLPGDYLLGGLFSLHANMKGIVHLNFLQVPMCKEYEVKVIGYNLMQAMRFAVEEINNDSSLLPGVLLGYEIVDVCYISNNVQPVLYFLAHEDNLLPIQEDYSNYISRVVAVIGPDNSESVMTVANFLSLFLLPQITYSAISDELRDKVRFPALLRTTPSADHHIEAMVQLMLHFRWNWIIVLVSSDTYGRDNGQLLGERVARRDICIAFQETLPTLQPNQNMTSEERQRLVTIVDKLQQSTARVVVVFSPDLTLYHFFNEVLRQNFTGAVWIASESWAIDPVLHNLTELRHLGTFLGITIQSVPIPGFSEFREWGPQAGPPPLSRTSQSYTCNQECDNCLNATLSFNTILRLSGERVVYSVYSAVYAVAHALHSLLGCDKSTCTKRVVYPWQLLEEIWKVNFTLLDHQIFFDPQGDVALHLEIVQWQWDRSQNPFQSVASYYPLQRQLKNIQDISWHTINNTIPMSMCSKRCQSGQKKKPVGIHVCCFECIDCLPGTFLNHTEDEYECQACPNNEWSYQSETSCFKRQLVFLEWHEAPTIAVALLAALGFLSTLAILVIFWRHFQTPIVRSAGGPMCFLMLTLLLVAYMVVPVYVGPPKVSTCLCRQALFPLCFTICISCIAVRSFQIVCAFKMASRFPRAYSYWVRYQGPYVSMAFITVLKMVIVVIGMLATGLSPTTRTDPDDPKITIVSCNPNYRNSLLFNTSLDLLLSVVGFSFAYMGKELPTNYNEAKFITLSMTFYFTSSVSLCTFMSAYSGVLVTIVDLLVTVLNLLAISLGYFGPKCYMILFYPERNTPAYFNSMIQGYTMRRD
T1 sequence (Q7RTX0 21-852 partner): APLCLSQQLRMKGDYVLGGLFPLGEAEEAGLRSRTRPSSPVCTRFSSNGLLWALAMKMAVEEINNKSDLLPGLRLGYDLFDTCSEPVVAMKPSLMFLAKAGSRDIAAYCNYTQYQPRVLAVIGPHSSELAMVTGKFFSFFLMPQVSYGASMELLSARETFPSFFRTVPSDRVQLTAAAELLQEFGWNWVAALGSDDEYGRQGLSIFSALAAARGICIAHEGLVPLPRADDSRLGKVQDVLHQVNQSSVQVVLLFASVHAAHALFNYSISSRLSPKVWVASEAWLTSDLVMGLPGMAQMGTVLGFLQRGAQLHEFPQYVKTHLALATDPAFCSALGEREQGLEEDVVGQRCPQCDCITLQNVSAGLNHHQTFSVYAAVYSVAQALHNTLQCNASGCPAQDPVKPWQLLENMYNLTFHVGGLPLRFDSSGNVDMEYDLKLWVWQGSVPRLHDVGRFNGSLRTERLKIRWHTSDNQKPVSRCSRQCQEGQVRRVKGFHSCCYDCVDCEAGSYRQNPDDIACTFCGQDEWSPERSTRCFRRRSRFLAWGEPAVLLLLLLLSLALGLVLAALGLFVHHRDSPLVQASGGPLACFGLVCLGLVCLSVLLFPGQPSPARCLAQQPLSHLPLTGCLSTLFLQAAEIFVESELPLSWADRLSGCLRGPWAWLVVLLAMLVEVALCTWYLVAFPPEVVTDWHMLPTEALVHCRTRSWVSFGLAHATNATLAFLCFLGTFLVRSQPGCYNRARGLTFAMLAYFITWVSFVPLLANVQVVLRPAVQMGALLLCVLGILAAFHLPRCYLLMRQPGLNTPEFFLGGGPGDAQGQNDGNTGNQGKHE
Test: Receptor-based assay: sweetener EC50 alone and with test compound (enhancement ratio)
Assay type: cell-based
Settings: for Fructose Enhancement EC50 Ratio: sweetener fructose; for Sucralose Enhancement EC50 Ratio: sweetener sucralose; for Sucrose Enhancement EC50 Ratio: sweetener sucrose
Method in brief: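 Sucrose, sucralose or fructose EC50 measured on human T1R2/T1R3, alone and with 3, 10 or 50 μM test compound. Enhancement is the EC50 ratio without/with compound, binned A >20, B 10-20, C >1 to <10.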

SMILES	Fructose Enhancement EC50 Ratio (10 μM test compound)	Fructose Enhancement EC50 Ratio (50 μM test compound)	Sucralose Enhancement EC50 Ratio (10 μM test compound)	Sucralose Enhancement EC50 Ratio (50 μM test compound)	Sucrose Enhancement EC50 Ratio (3 μM test compound)	Sucrose Enhancement EC50 Ratio (10 μM test compound)	Sucrose Enhancement EC50 Ratio (50 μM test compound)
CN(C)CCNC(=O)c1ccnc(N2CCC[C@H](COc3cccc4c3C(N)=NS(=O)(=O)N4)C2)c1 [Compound 605]	C (A “C” value indicates an enhancement ratio greater than 1 and less than 10)	C (A “C” value indicates an enhancement ratio greater than 1 and less than 10)	A (An “A” value indicates an enhancement ratio of greater than 20)	A (An “A” value indicates an enhancement ratio of greater than 20)	C (A “C” value indicates an enhancement ratio greater than 1 and less than 10)	C (A “C” value indicates an enhancement ratio greater than 1 and less than 10)	B (A “B” value indicates an enhancement ratio from 10 to 20)
CC(C)NC(=O)c1ccnc(N2CCC[C@H](COc3cccc4c3C(N)=NS(=O)(=O)N4)C2)c1 [Compound 606]	C (A “C” value indicates an enhancement ratio greater than 1 and less than 10)	C (A “C” value indicates an enhancement ratio greater than 1 and less than 10)	A (An “A” value indicates an enhancement ratio of greater than 20)	A (An “A” value indicates an enhancement ratio of greater than 20)	C (A “C” value indicates an enhancement ratio greater than 1 and less than 10)	B (A “B” value indicates an enhancement ratio from 10 to 20)	C (A “C” value indicates an enhancement ratio greater than 1 and less than 10)
NC1=NS(=O)(=O)Nc2cccc(OC[C@H]3CCCN(c4cc(C(=O)NC5CC5)ccn4)C3)c21 [Compound 607]	C (A “C” value indicates an enhancement ratio greater than 1 and less than 10)	–	–	–	A (An “A” value indicates an enhancement ratio of greater than 20)	B (A “B” value indicates an enhancement ratio from 10 to 20)	C (A “C” value indicates an enhancement ratio greater than 1 and less than 10)
NC1=NS(=O)(=O)Nc2cccc(OC[C@H]3CCCN(c4cc(C(=O)NC5CCCC5)ccn4)C3)c21 [Compound 608]	C (A “C” value indicates an enhancement ratio greater than 1 and less than 10)	C (A “C” value indicates an enhancement ratio greater than 1 and less than 10)	A (An “A” value indicates an enhancement ratio of greater than 20)	A (An “A” value indicates an enhancement ratio of greater than 20)	C (A “C” value indicates an enhancement ratio greater than 1 and less than 10)	C (A “C” value indicates an enhancement ratio greater than 1 and less than 10)	B (A “B” value indicates an enhancement ratio from 10 to 20)
NC1=NS(=O)(=O)Nc2cccc(OC[C@H]3CCCN(c4cc(C(=O)NC5CCCCC5)ccn4)C3)c21 [Compound 609]	C (A “C” value indicates an enhancement ratio greater than 1 and less than 10)	C (A “C” value indicates an enhancement ratio greater than 1 and less than 10)	B (A “B” value indicates an enhancement ratio from 10 to 20)	B (A “B” value indicates an enhancement ratio from 10 to 20)	C (A “C” value indicates an enhancement ratio greater than 1 and less than 10)	C (A “C” value indicates an enhancement ratio greater than 1 and less than 10)	C (A “C” value indicates an enhancement ratio greater than 1 and less than 10)
CN(C)C(=O)c1ccnc(N2CCC[C@H](COc3cccc4c3C(N)=NS(=O)(=O)N4)C2)c1 [Compound 610]	C (A “C” value indicates an enhancement ratio greater than 1 and less than 10)	C (A “C” value indicates an enhancement ratio greater than 1 and less than 10)	A (An “A” value indicates an enhancement ratio of greater than 20)	A (An “A” value indicates an enhancement ratio of greater than 20)	–	C (A “C” value indicates an enhancement ratio greater than 1 and less than 10)	B (A “B” value indicates an enhancement ratio from 10 to 20)
CCN(CC)C(=O)c1ccnc(N2CCC[C@H](COc3cccc4c3C(N)=NS(=O)(=O)N4)C2)c1 [Compound 611]	C (A “C” value indicates an enhancement ratio greater than 1 and less than 10)	–	B (A “B” value indicates an enhancement ratio from 10 to 20)	A (An “A” value indicates an enhancement ratio of greater than 20)	C (A “C” value indicates an enhancement ratio greater than 1 and less than 10)	B (A “B” value indicates an enhancement ratio from 10 to 20)	C (A “C” value indicates an enhancement ratio greater than 1 and less than 10)
NC1=NS(=O)(=O)Nc2cccc(OC[C@H]3CCCN(c4cc(C(=O)N5CCCC5)ccn4)C3)c21 [Compound 612]	C (A “C” value indicates an enhancement ratio greater than 1 and less than 10)	C (A “C” value indicates an enhancement ratio greater than 1 and less than 10)	A (An “A” value indicates an enhancement ratio of greater than 20)	A (An “A” value indicates an enhancement ratio of greater than 20)	C (A “C” value indicates an enhancement ratio greater than 1 and less than 10)	C (A “C” value indicates an enhancement ratio greater than 1 and less than 10)	C (A “C” value indicates an enhancement ratio greater than 1 and less than 10)
NC1=NS(=O)(=O)Nc2cccc(OC[C@H]3CCCN(c4cc(C(=O)N5CCCCC5)ccn4)C3)c21 [Compound 613]	–	–	A (An “A” value indicates an enhancement ratio of greater than 20)	A (An “A” value indicates an enhancement ratio of greater than 20)	–	C (A “C” value indicates an enhancement ratio greater than 1 and less than 10)	C (A “C” value indicates an enhancement ratio greater than 1 and less than 10)
